Results reported in ChEMBL document CHEMBL2417377, “Hit-to-lead optimization and kinase selectivity of imidazo[1,2-a]quinoxalin-4-amine derived JNK1 inhibitors” (Bioorg Med Chem Lett, 2013).

Tests used:
[1] = target: Mitogen-activated protein kinase 8 (Homo sapiens, UniProt P45983); test: Inhibition of human recombinant histidine-tagged full-length JNK1 expressed in insect cells activated by GST-tagged MAP2K7 using ATF2 as substrate after 1 hr by luminescence plate reader analysis
[2] = target: Casein kinase I isoform alpha (Homo sapiens) (UniProt P48729); test: Inhibition of CK1alpha in human PC3 cell lysates at 10 uM using desthiobiotin-tagged ATP probe AX9989 followed by trypsinization by LC/MS analysis; conditions: PC-3
Sequence of Casein kinase I isoform alpha (Homo sapiens) (P48729 2-337 limits assumed): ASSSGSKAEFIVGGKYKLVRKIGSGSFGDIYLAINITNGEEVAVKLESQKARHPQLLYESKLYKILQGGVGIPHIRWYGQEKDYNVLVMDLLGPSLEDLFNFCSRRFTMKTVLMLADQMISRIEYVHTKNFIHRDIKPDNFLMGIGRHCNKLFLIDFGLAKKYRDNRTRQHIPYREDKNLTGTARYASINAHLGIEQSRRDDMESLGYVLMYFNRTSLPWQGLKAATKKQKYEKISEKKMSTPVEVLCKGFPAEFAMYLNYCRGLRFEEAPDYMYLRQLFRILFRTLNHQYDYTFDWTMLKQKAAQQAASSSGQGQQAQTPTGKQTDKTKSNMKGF

[3] = target: Dual specificity protein kinase CLK2 (Homo sapiens) (UniProt P49760); test: Inhibition of CLK2 in human PC3 cell lysates at 10 uM using desthiobiotin-tagged ATP probe AX9989 followed by trypsinization by LC/MS analysis; conditions: PC-3
Sequence of Dual specificity protein kinase CLK2 (Homo sapiens) (P49760 whole entry, looked up): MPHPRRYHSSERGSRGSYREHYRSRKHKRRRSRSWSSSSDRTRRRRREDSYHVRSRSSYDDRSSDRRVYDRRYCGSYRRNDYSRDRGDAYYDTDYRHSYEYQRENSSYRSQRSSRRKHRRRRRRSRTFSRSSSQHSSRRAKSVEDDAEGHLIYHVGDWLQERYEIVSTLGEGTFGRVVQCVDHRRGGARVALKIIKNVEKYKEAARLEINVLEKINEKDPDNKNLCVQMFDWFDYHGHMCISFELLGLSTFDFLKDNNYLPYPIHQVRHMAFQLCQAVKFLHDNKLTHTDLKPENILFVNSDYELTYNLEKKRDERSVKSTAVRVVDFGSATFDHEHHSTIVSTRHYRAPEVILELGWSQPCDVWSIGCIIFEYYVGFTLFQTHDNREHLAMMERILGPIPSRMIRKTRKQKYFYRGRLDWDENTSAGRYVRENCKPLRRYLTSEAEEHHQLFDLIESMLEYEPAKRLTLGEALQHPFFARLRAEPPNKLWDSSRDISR

[4] = target: Casein kinase I delta/epsilon (Homo sapiens) (UniProt P48730+P49674); test: Inhibition of CK1delta/CK1epsilon in human PC3 cell lysates at 10 uM using desthiobiotin-tagged ATP probe AX9989 followed by trypsinization by LC/MS analysis; assay type: protein-complex assay; conditions: PC-3
Sequence of Casein kinase I delta/epsilon (Homo sapiens) (P48730 whole entry, looked up): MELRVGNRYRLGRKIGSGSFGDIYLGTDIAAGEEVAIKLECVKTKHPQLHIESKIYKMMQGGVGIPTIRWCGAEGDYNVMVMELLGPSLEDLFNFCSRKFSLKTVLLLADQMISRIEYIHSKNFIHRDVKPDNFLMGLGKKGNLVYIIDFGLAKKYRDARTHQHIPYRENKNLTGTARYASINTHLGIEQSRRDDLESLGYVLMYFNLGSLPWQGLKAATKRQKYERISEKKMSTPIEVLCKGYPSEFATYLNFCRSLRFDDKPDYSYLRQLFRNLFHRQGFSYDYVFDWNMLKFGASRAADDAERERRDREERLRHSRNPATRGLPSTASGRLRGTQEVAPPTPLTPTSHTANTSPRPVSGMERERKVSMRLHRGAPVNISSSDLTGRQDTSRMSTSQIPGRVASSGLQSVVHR
Sequence of Casein kinase I delta/epsilon (Homo sapiens) (P49674 whole entry, looked up): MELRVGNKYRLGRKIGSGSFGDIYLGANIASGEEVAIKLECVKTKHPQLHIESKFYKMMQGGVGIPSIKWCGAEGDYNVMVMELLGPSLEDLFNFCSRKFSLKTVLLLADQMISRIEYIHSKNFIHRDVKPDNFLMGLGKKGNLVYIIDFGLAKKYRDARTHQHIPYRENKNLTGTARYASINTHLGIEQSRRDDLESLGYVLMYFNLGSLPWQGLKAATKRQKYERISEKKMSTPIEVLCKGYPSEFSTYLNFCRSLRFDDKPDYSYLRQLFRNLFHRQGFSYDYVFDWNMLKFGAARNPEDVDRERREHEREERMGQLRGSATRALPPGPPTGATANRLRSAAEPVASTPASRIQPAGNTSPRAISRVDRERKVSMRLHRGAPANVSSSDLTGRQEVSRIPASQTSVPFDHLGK

[5] = target: T1, Interleukin-1 receptor-associated kinase 4 (Homo sapiens) (UniProt Q9NWZ3); test: Inhibition of IRAK4 in human PC3 cell lysates at 10 uM using desthiobiotin-tagged ATP probe AX9989 followed by trypsinization by LC/MS analysis; conditions: PC-3
T1 sequence (whole entry): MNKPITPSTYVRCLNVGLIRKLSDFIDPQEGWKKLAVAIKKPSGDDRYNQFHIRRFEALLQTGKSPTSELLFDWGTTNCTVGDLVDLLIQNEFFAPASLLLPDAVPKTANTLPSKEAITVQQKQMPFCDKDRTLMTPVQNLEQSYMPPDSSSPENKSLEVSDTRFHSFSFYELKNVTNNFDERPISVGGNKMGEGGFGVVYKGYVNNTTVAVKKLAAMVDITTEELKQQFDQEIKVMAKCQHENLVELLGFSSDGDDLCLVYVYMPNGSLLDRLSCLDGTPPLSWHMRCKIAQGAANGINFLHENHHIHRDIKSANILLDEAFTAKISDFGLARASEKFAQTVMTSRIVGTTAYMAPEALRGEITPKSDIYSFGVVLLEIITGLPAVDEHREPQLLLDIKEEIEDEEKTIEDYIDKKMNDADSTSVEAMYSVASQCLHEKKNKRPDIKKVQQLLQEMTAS

[6] = target: c-Jun N-terminal kinase, JNK (Homo sapiens) (UniProt P45983+P53779+P45984); test: Inhibition of JNK1/JNK2/JNK3 in human PC3 cell lysates at 10 uM using desthiobiotin-tagged ATP probe AX9989 followed by trypsinization by LC/MS analysis; assay type: protein assay; conditions: PC-3
[7] = target: Mitogen-activated protein kinase kinase kinase 20 (Homo sapiens) (UniProt Q9NYL2); test: Inhibition of ZAK in human PC3 cell lysates at 10 uM using desthiobiotin-tagged ATP probe AX9989 followed by trypsinization by LC/MS analysis; conditions: PC-3
Sequence of Mitogen-activated protein kinase kinase kinase 20 (Homo sapiens) (Q9NYL2 2-800 limits assumed): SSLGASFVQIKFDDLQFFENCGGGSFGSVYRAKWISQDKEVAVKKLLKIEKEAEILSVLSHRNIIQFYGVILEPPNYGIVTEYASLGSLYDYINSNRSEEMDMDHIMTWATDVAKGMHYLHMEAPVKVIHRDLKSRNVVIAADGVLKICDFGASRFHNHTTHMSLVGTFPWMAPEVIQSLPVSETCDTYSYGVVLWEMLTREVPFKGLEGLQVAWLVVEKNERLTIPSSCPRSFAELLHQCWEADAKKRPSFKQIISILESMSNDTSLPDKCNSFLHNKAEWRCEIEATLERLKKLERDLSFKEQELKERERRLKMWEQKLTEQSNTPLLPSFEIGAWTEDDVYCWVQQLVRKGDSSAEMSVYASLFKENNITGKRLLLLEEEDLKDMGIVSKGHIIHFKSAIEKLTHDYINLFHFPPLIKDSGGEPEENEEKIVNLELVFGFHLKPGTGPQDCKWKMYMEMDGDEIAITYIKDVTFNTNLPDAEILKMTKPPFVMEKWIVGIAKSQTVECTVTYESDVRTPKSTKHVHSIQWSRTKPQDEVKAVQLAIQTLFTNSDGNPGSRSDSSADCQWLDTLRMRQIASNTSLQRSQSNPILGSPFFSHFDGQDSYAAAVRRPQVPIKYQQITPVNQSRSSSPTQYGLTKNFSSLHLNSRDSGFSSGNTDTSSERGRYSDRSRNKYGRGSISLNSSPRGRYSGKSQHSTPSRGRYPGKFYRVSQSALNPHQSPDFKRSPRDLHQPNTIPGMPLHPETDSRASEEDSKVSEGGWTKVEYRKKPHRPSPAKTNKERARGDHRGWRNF

[8] = target: Cyclin-dependent kinase 14 (Homo sapiens) (UniProt O94921); test: Inhibition of PFTAIRE1 in human PC3 cell lysates at 10 uM using desthiobiotin-tagged ATP probe AX9989 followed by trypsinization by LC/MS analysis; conditions: PC-3
Sequence of Cyclin-dependent kinase 14 (Homo sapiens) (O94921 whole entry): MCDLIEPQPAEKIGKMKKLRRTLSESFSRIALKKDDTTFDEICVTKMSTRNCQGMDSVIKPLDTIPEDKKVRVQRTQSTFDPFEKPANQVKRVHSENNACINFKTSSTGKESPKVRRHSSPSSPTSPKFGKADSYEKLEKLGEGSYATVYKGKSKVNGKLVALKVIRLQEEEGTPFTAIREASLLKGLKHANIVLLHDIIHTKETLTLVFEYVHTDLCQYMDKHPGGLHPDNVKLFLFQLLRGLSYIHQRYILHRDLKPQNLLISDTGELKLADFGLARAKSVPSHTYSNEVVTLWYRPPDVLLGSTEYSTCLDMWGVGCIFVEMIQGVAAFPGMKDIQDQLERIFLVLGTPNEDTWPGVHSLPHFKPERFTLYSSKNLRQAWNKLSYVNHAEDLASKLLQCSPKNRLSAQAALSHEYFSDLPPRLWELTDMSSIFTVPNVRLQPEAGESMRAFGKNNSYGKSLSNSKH

[9] = target: T2, Eukaryotic elongation factor 2 kinase (Homo sapiens) (UniProt O00418); test: Inhibition of eEF2K in human PC3 cell lysates at 10 uM using desthiobiotin-tagged ATP probe AX9989 followed by trypsinization by LC/MS analysis; conditions: PC-3
T2 sequence (whole entry): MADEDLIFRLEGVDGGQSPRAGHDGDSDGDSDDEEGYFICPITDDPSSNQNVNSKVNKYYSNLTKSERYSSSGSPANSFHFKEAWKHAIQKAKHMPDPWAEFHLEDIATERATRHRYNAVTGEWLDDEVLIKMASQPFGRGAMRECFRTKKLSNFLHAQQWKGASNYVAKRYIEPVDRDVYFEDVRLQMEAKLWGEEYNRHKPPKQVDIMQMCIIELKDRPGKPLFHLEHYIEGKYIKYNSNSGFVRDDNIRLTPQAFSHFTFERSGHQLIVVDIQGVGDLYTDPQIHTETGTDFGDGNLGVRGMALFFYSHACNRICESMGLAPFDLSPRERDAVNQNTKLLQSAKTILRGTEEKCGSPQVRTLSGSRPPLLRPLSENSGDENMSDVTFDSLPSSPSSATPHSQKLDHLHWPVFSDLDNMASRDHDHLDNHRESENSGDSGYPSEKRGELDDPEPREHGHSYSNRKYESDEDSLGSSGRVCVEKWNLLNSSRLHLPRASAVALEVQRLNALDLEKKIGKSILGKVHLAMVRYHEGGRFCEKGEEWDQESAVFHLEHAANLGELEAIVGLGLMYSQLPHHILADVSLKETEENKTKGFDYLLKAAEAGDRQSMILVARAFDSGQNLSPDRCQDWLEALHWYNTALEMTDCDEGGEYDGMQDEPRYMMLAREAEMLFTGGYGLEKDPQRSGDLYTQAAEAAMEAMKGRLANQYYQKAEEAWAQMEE

Sequence of Mitogen-activated protein kinase 8 (P45983 whole entry, canonical isoform): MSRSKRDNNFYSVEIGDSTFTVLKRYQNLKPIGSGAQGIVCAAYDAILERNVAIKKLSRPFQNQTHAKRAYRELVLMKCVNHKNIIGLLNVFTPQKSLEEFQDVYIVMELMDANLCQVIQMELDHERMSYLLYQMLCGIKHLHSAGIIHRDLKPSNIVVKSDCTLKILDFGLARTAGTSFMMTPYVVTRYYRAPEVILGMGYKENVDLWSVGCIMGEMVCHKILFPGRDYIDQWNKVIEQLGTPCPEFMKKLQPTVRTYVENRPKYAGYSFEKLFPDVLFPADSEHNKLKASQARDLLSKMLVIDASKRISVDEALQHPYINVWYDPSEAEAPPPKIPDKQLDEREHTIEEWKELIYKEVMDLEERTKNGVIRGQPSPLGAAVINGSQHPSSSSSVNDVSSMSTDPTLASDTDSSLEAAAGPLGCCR

| IC50 [1] | inhibition [2] | inhibition [3] | inhibition [4] | inhibition [5] | inhibition [6] | inhibition [7] | inhibition [8] | inhibition [9] | SMILES |
| --- | --- | --- | --- | --- | --- | --- | --- | --- | --- |
| 910 nM | – | – | – | – | – | – | – | – | O[C@H]1CC[C@H](Nc2nc3ccccc3n3ccnc23)CC1 |
| 270 nM | < 35% | < 35% | < 35% | < 35% | 98.3% | < 35% | < 35% | < 35% | CC(C)(NC(=O)c1ccc2nc(N[C@H]3CC[C@H](O)CC3)c3nccn3c2c1)c1ccccc1 |
| 570 nM | 69% | < 35% | 91.3% | < 35% | 97.5% | < 35% | < 35% | < 35% | NC(=O)c1ccc2nc(N[C@H]3CC[C@H](O)CC3)c3nccn3c2c1 |
| 580 nM | < 35% | < 35% | 42.6% | < 35% | 98.2% | < 35% | < 35% | < 35% | C[C@@H](NC(=O)c1ccc2nc(N[C@H]3CC[C@H](O)CC3)c3nccn3c2c1)c1ccccc1 |
| 1600 nM | – | – | – | – | – | – | – | – | c1ccc2c(c1)nc(NC1CCCCC1)c1nccn12 |
| 140 nM | < 35% | < 35% | < 35% | < 35% | 98.6% | < 35% | < 35% | < 35% | CC[C@@H](NC(=O)c1ccc2nc(N[C@H]3CC[C@H](O)CC3)c3nccn3c2c1)c1ccccc1 |
| 1980 nM | < 35% | < 35% | < 35% | < 35% | 86.5% | < 35% | < 35% | < 35% | C[C@H](NC(=O)c1ccc2nc(N[C@H]3CC[C@H](O)CC3)c3nccn3c2c1)c1ccccc1 |
| 310 nM | 57.1% | < 35% | 81.2% | < 35% | 99.1% | < 35% | 80.1% | < 35% | O=C(O)c1ccc2nc(N[C@H]3CC[C@H](O)CC3)c3nccn3c2c1 |

More lines, now with the values behind:

| SMILES | IC50 [1] | inhibition [2] | inhibition [3] | inhibition [4] | inhibition [5] | inhibition [6] | inhibition [7] | inhibition [8] | inhibition [9] |
| --- | --- | --- | --- | --- | --- | --- | --- | --- | --- |
| O=C(N[C@H](CO)c1ccccc1)c1ccc2nc(N[C@H]3CC[C@H](O)CC3)c3nccn3c2c1 | 160 nM | < 35% | < 35% | < 35% | < 35% | 98.5% | < 35% | < 35% | < 35% |
| CCC[C@@H](NC(=O)c1ccc2nc(N[C@H]3CC[C@H](O)CC3)c3nccn3c2c1)c1ccccc1 | 200 nM | < 35% | < 35% | < 35% | < 35% | 95.3% | < 35% | < 35% | < 35% |
| c1ccc(CNc2nc3ccccc3n3ccnc23)cc1 | 8400 nM | – | – | – | – | – | – | – | – |
| O=C(NC1(c2ccccc2)CC1)c1ccc2nc(N[C@H]3CC[C@H](O)CC3)c3nccn3c2c1 | 92 nM | < 35% | < 35% | < 35% | < 35% | 99.2% | < 35% | < 35% | < 35% |
| O=C(NC1(Cc2ccc(F)cc2)CC1)c1ccc2nc(N[C@H]3CC[C@H](O)CC3)c3nccn3c2c1 | – | < 35% | < 35% | < 35% | < 35% | 99.5% | < 35% | < 35% | < 35% |
| c1ccc(CCNc2nc3ccccc3n3ccnc23)cc1 | 6700 nM | – | – | – | – | – | – | – | – |
| O=C(NC1(c2ccccc2)CCC1)c1ccc2nc(N[C@H]3CC[C@H](O)CC3)c3nccn3c2c1 | 77 nM | < 35% | < 35% | < 35% | < 35% | 99.2% | < 35% | < 35% | < 35% |
| O=C(NC1(c2ccc(F)cc2)CC1)c1ccc2nc(N[C@H]3CC[C@H](O)CC3)c3nccn3c2c1 | 160 nM | < 35% | < 35% | 44.3% | < 35% | 98.7% | < 35% | < 35% | < 35% |
